The target of assay [1] is T1, A1 receptor (Mesocricetus auratus, UniProt A0A1U8BVR4).
T1 construct: endogenous in cells; host or cells: DDT1 (DDT1 MF-2) hamster vas deferens smooth muscle cells
T1 sequence (A0A1U8BVR4 1-326): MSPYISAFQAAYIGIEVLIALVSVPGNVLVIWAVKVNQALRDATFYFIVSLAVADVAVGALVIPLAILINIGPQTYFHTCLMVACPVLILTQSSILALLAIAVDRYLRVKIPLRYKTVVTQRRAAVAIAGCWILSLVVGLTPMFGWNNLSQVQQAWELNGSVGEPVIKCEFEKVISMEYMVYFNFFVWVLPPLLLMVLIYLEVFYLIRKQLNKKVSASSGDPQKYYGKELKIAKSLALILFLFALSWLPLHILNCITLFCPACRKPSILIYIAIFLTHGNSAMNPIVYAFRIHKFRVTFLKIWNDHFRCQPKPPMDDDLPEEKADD
Kind of assay: Competitive binding assay, DDT1 cell membranes, [3H]CCPA. The arrangement: species or system hamster. The note with it: [3H]CCPA 2 nM, DDT1 cell membranes; read-out: Ki-DDT1 cell membrane.

Assay [2] has as its target T2, A2A AdoR (Cavia porcellus, UniProt P46616).
T2 construct: from tissue; host or cells: guinea pig isolated perfused heart
Kind of assay: Guinea pig isolated perfused heart: coronary vasodilation (coronary conductance). The note with it: guinea pig isolated perfused hearts; read-out: EC50 to cause coronary vasodilation. The method, then: Guinea pigs of either sex weighing 250-300 g were anesthetized with methoxyflurane and killed by cervical dislocation. The hearts were quickly removed and rinsed in ice-cold Krebs-Henseleit solution. The aorta was cannulated and the heart retrogradely perfused at a constant flow of 10 ml min^−1 with modified Krebs-Henseleit solution containing (mM): NaCL 117.9, KCl 4.8, CaCl2 2.5, MgSO4 1.18, KH2PO4 1.2, Na2EDTA 0.5, ascorbic acid 0.14, glucose 5.5, pyruvic acid (sodium salt) 2.0, and NaHCO3 25. The K—H solution was oxygenated with 95% oxygen and 5% CO2, pH 7.4, and temperature maintained at 36° C.
Coronary perfusion pressure was measured using a pressure transducer that was connected to the aortic cannula via a T-connector. Coronary perfusion pressure (in mmHg) was monitored throughout an experiment and recorded on a 4-channel Gould strip-chart recorder (Gould RS3400, Cleveland, Ohio, U.S.A.). Coronary conductance (in ml min^−1 mmHg^−1) was calculated as the ratio of coronary perfusion rate (10 ml min^−1) and perfusion pressure (mmHg).

T2 sequence (P46616 whole entry, the tested form may be a part): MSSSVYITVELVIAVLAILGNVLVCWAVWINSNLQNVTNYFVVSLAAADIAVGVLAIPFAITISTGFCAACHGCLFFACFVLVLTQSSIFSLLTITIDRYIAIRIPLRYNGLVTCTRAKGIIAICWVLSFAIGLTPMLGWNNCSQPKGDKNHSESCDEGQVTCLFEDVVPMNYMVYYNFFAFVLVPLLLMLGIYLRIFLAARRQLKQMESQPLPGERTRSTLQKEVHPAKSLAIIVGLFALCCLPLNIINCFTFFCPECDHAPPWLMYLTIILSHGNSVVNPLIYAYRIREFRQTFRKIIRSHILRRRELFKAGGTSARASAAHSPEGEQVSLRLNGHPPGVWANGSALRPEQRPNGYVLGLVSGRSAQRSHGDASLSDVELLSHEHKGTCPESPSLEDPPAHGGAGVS

Turning to `CNC(=O)OC[C@H]1O[C@@H](n2cnc3c(N[C@@H]4CCOC4)ncnc32)[C@H](O)[C@@H]1O` [Compound 6, (5-16[((3R)oxolan-3-yl)aminolpurin-9-yl)(3S,2R,4R,5R)-3,4dihydroxyoxolan-2yl)methoxyl-N-methylearboxamide], the inhibition constant Ki (in general, a dissociation constant, usually derived from enzyme kinetics or from competition with a known ligand) in assay [1] was determined as 0.178 µM. Further, in assay [2], the concentration for a half-maximal effect (EC50) (commonly the concentration needed to bring the measured effect to its halfway point) amounted to 31 ± 5.1 µM.
